From ChEMBL document CHEMBL5390237, “Discovery of Selective Histone Deacetylase 1 and 2 Inhibitors: Screening of a Focused Library Constructed by Click Chemistry, Kinetic Binding Analysis, and Biological Evaluation” (J Med Chem, 2023)
Calls of active or inactive are those of the source. The rule behind the calls is not given here.

Assays:
Histone deacetylase 2 [1] = molecular target: T1, Histone deacetylase 2 (Homo sapiens, UniProt Q92769); assay: Inhibition of full-length recombinant human C-terminal GST tagged HDAC2 expressed in Sf9 insect cells using aminoluciferin peptide substrate at 100 nM preincubated for 3 hrs followed by substrate addition and measured after 30 mins by HDAC-Glo I/II chemiluminescence assay; conditions: time 3.5 hrs
Histone deacetylase 1 = Histone deacetylase 1 (Homo sapiens, UniProt Q13547); assay: Inhibition of full-length recombinant human C-terminal GST tagged HDAC1 expressed in Sf9 insect cells using aminoluciferin peptide substrate preincubated for 3 hrs followed by substrate addition and measured after 30 mins by HDAC-Glo I/II chemiluminescence assay
Histone deacetylase 2 [2] = molecular target: T1, Histone deacetylase 2; assay: Inhibition of full-length recombinant human C-terminal GST tagged HDAC2 expressed in Sf9 insect cells using aminoluciferin peptide substrate preincubated for 3 hrs followed by substrate addition and measured after 30 mins by HDAC-Glo I/II chemiluminescence assay; type: cell-based
[3] = molecular target: Histone deacetylase 3/NCoR1 (Homo sapiens, UniProt O15379); assay: Inhibition of recombinant human HDAC3/human GST-tagged NCOR1 (397 to 503 residues) using K(Ac)382 peptide substrate preincubated for 3 hrs followed by substrate addition and measured after 30 mins by HDAC-Glo I/II chemiluminescence assay; type: protein-complex assay
Histone deacetylase 8 = molecular target: T2, Histone deacetylase 8 (Homo sapiens, UniProt Q9BY41); assay: Inhibition of full-length recombinant human C-terminal His-tagged HDAC8 expressed in Sf9 insect cells using aminoluciferin peptide substrate preincubated for 3 hrs followed by substrate addition and measured after 30 mins by HDAC-Glo I/II chemiluminescence assay
T2 sequence (Q9BY41 whole entry): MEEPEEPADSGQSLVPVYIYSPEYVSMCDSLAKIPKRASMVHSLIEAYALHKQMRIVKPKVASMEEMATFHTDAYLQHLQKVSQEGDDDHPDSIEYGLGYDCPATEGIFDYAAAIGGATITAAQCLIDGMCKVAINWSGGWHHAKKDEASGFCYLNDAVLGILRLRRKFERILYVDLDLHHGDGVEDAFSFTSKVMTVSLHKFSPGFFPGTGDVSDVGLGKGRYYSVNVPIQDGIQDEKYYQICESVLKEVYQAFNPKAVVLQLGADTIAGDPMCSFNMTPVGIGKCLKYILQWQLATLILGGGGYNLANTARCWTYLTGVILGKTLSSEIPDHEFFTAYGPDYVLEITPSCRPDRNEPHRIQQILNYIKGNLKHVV

[4] = molecular target: Histone deacetylase 4 (Homo sapiens) (UniProt P56524); assay: Inhibition of recombinant human HDAC4 using fluorogenic substrate preincubated for 3 hrs followed by substrate addition and measured after 30 mins by fluorescence analysis; conditions: time 3.5 hrs
[5] = molecular target: T3, Protein deacetylase HDAC6 (Homo sapiens) (UniProt Q9UBN7); assay: Inhibition of full-length recombinant human C-terminal GST tagged HDAC6 expressed in Sf9 insect cells using aminoluciferin peptide substrate preincubated for 3 hrs followed by substrate addition and measured after 30 mins by HDAC-Glo I/II chemiluminescence assay; conditions: time 3.5 hrs
T3 sequence (whole entry): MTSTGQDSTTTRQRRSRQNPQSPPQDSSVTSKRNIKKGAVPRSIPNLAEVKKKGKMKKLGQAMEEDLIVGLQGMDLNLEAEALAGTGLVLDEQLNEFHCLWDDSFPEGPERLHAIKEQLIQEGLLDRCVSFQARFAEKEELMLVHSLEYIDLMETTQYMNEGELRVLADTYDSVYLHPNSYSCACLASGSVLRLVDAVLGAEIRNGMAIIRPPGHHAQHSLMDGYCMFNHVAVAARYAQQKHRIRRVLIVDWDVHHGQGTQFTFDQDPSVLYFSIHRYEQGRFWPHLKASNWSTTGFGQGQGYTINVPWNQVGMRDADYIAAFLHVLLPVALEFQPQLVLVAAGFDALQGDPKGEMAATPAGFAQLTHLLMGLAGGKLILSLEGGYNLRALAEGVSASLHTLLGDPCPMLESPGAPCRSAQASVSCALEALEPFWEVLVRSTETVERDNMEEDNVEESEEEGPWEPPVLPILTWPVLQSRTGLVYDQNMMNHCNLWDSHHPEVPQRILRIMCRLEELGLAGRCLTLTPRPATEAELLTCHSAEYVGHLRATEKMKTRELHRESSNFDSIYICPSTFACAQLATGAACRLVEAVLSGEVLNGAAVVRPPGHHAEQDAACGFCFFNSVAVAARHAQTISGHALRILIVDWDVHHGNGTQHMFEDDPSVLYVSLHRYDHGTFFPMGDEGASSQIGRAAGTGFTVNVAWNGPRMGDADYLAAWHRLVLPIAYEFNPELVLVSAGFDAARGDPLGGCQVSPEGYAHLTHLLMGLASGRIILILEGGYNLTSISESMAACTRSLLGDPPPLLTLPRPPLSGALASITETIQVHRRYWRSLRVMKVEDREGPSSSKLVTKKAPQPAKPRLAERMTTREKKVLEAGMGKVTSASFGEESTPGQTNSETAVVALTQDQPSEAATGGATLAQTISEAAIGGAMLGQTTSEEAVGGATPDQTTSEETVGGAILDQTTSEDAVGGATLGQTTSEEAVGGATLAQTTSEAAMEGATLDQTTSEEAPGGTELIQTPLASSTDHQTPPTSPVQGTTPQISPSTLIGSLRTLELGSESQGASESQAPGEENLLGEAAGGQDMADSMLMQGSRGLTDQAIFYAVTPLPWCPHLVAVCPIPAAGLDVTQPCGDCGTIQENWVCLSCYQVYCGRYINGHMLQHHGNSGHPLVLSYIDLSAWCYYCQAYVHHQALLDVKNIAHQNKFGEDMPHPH

[6] = molecular target: Histone deacetylase 9 (Homo sapiens) (UniProt Q9UKV0); assay: Inhibition of recombinant human HDAC9 using fluorogenic substrate preincubated for 3 hrs followed by substrate addition and measured after 30 mins by fluorescence analysis; conditions: time 3.5 hrs
Histone deacetylase 2 [7] = molecular target: T1, Histone deacetylase 2; assay: biochemical; type: cell-based, Sf9
MCF7 [8] = assay: cells; type: functional; conditions: Homo sapiens, time 48 hrs
Description: Anticancer activity against human MCF7 cells overexpressing HDAC1 and HDAC2 assessed as inhibition of cell growth incubated for 48 hrs by sulforhodamine B assay

[9] = Cytotoxicity against human HMEC cells assessed as inhibition of cell viability incubated for 3 days by AlamarBlue based fluorescence analysis
MCF7 [10] = assay: Upregulation of GADD45A gene expression in human MCF7 cells at 2 uM incubated for 24 hrs by RT-qPCR analysis; type: functional, cell-based
MCF7 [11] = assay: Upregulation of ERRF1 gene expression in human MCF7 cells at 2 uM incubated for 24 hrs by RT-qPCR analysis; type: functional, cell-based
MCF7 [12] = assay: Downregulation of E2F8 gene expression in human MCF7 cells at 2 uM incubated for 24 hrs by microarray analysis; type: functional, cell-based
MCF7 [13] = assay: Downregulation of CCNE2 gene expression in human MCF7 cells at 2 uM incubated for 24 hrs by microarray analysis; type: functional, cell-based
Histone deacetylase 2 [14] = molecular target: T1, Histone deacetylase 2; conditions: Sf9, dose 30-100 nM, time 3.5 hrs

Histone deacetylase 1, sequence (Q13547 whole entry): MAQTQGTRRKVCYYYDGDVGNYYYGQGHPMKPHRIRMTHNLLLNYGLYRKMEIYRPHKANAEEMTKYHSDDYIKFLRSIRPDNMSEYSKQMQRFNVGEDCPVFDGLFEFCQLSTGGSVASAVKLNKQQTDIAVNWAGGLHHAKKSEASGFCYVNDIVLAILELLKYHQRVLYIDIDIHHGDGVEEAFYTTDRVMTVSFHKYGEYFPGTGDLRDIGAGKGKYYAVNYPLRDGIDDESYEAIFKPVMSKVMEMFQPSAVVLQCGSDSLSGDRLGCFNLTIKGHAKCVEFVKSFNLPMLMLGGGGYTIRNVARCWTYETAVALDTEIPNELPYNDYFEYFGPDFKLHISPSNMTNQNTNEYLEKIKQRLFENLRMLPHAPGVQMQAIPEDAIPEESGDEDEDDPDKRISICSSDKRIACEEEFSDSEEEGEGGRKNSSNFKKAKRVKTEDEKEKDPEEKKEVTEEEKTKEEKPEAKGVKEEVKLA
T1 sequence (Q92769 whole entry): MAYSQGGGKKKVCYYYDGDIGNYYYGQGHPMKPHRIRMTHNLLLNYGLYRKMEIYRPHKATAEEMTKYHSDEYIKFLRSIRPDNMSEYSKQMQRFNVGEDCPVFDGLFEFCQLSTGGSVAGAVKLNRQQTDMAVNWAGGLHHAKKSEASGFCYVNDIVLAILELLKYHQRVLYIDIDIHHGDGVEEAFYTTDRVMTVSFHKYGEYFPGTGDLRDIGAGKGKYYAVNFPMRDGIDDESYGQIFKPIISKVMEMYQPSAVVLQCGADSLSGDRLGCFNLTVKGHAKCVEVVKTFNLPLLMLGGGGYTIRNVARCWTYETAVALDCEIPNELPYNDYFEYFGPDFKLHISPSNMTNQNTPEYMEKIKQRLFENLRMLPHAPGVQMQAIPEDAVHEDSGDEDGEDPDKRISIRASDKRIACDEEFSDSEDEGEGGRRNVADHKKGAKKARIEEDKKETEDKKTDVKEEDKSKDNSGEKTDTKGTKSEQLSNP
Histone deacetylase 9 (Homo sapiens), sequence (Q9UKV0 whole entry): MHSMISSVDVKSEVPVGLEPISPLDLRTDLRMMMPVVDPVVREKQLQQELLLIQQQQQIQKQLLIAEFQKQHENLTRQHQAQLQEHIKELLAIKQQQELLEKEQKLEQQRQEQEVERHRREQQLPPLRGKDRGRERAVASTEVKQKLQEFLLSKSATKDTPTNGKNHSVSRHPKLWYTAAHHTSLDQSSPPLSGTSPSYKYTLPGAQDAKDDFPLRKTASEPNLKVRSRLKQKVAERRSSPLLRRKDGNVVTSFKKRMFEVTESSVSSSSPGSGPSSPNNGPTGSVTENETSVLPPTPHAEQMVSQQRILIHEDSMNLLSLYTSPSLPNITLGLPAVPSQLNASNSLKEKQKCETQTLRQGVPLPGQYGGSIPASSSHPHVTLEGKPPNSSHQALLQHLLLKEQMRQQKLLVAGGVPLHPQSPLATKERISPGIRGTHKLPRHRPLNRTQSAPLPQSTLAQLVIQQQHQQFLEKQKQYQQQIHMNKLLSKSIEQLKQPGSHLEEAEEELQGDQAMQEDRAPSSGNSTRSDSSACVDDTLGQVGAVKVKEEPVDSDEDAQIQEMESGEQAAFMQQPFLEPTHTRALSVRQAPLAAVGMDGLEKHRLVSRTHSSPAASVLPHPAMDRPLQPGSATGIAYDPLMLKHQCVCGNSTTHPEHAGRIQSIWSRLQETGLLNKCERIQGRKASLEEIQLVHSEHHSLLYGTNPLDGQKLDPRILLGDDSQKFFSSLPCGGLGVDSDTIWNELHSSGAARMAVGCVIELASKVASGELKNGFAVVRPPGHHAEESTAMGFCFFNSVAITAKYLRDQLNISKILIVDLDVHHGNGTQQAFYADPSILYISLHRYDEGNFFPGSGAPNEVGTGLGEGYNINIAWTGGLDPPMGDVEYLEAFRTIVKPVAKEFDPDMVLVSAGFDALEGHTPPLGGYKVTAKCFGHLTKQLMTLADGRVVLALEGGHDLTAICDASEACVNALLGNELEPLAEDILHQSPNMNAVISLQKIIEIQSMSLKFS
Histone deacetylase 4 (Homo sapiens), sequence (P56524 whole entry): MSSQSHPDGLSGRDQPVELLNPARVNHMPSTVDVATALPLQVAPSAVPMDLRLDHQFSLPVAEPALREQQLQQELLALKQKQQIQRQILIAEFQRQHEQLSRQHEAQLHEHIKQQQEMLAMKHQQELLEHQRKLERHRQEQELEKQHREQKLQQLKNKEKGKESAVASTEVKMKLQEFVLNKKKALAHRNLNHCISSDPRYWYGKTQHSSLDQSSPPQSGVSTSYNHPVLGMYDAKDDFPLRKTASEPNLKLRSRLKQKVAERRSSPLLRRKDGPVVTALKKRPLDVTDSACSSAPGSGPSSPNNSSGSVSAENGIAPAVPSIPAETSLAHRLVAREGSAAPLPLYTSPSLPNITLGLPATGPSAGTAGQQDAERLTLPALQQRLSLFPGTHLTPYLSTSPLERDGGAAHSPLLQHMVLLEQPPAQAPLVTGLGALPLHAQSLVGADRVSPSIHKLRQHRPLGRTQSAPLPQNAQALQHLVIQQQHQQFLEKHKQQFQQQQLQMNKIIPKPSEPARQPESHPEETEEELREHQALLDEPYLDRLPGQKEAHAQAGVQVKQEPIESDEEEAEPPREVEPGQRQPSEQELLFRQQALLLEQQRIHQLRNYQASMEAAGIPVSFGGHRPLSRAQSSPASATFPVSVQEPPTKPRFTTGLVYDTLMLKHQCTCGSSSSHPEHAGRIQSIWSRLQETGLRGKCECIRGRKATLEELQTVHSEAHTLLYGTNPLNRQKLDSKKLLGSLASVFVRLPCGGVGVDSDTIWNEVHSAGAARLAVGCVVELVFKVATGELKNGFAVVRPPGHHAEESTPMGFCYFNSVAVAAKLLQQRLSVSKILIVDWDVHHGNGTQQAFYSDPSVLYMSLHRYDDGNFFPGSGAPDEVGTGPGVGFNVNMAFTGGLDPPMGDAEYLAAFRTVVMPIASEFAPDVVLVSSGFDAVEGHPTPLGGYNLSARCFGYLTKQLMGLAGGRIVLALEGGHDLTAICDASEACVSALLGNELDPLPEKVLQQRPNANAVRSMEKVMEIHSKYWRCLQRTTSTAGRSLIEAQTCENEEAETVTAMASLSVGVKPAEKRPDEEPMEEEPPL

SMILES | inhibition (Histone deacetylase 2 [1]) | IC50 (Histone deacetylase 1) | IC50 (Histone deacetylase 2 [2]) | IC50 [3] | IC50 (Histone deacetylase 8) | inhibition [4] | inhibition [5] | inhibition [6] | Ki (Histone deacetylase 2 [7]) | GI50 (MCF7 [8]) | IC50 at 3 days [9] | Activity (MCF7 [10]) | Activity (MCF7 [11]) | Activity (MCF7 [12]) | Activity (MCF7 [13]) | inhibition (Histone deacetylase 2 [14])
Nc1ccc(-c2cccs2)cc1NC(=O)c1ccc(-c2cn(CS(=O)(=O)c3ccccc3)nn2)cc1 | 77% | 12 nM | 68 nM | > 10000 nM | > 10000 nM | inactive | inactive | inactive | 6.2 nM | 43 nM | 9850 nM | Active | Active | Active | Active | Dose-Dependent Effect
Nc1ccc(-c2cccs2)cc1NC(=O)c1ccc(-c2cn(C[S+]([O-])c3ccccc3)nn2)cc1 (stereo not drawn) | 87% | 8.2 nM | 19 nM | > 10000 nM | 4450 nM | inactive | inactive | inactive | 22 nM | 1860 nM | > 10000 nM | Active | Active | Active | Active | Dose-Dependent Effect
Nc1ccc(-c2cccs2)cc1NC(=O)c1ccc(-c2cn(CCc3ccccn3)nn2)cc1 | 81% | 6.5 nM | 17 nM | > 10000 nM | > 10000 nM | inactive | inactive | inactive | 9.8 nM | 52500 nM | 4350 nM | Active | Active | Active | Active | Dose-Dependent Effect
